Measurements: paper PMC12775434, “Ultra-large virtual screening unveils potent agonists of the neuromodulatory orphan receptor GPR139” (Nature Communications, 2025)
Several values for one entry are separate records, joined by “and”; a condition that tells them apart may be missing. Equal entries are not always repeated. Where two headings read alike, the source gives them in different places.

Assays:
Format in all cases: cell-based
[1] = molecular target: T1, GPR139 (Homo sapiens, UniProt Q6DWJ6); test: Ca2+ mobilization assay, antagonist mode (EC80 800 nM Lundbeck Cmp 1a after 20 min preincubation), GPR139-CHOk1
T1 sequence (Q6DWJ6 1-353): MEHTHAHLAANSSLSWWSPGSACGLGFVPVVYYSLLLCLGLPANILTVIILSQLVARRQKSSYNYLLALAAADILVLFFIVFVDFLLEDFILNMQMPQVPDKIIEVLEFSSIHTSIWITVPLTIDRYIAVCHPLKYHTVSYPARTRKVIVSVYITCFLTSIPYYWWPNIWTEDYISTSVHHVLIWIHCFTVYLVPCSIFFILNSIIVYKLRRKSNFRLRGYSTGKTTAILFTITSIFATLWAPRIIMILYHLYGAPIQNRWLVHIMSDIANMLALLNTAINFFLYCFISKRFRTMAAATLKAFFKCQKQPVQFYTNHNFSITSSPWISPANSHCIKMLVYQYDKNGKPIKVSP
How it was run: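 Antagonist mode: 800 nM (EC80) reference agonist Lundbeck Cmp 1a added following 20 min pre-incubation with 10 µM compound. GPR139-CHOk1 cells, Fluo-4 dye, probenecid-containing HEPES buffer pH 7.4; intracellular Ca2+ measured at 37 °C (ex 485, em 525 nm).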

[2] = molecular target: T1, GPR139; test: Ca2+ mobilization assay, agonist mode, stable GPR139-CHOk1 cell line; conditions: for Emax: normalized to Lundbeck Cmp 1a, read-out: Emax (%) Ca2+
How it was run: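 Agonist activity of compounds is assessed in stably transfected CHO-K1 cells using the calcium dye Fluo-4 at 37 °C in HEPES-buffered HBSS (pH 7.4). Efficacy is expressed relative to the reference agonist Lundbeck Cmp 1a, set as 100%.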

[3] = molecular target: T2, human muscarinic acetylcholine M1 receptor (M1R) (Homo sapiens, UniProt P11229); test: Ca2+ mobilization counter-screen in M1R-CHOk1 cells
T2 sequence (P11229 1-460): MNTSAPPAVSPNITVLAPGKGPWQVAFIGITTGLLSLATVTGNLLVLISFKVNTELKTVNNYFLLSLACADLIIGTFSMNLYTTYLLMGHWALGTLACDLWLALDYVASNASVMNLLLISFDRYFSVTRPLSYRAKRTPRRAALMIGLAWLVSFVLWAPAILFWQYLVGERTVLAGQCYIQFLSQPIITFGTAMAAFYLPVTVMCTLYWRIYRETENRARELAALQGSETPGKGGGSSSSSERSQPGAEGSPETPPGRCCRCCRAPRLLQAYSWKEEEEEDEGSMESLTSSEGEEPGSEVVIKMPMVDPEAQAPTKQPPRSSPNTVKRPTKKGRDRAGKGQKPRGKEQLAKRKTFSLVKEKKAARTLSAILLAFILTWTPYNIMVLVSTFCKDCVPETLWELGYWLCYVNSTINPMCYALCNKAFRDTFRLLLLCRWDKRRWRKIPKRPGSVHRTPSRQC
Experimental: Primary screening and pharmacological characterization of compounds were performed using a CHO-K1 cell line that stably expresses human GPR139 (GPR139-CHOk1). The GPR139-CHOk1 cell line was kindly provided by H. Lundbeck A/S, Denmark[24]. GPR139-CHOk1 cells were grown in Ham’s F-12 Kaighn’s Modification Medium (ThermoFisher #21127030) supplemented with 10% dialyzed fetal bovine serum (US origin, ThermoFisher #26400044), 100 units/mL Penicillin-Streptomycin (ThermoFisher #15140122), and 1 mg/mL Geneticin (ThermoFisher #11811031). […] M1R-CHOk1 cells were purchased from The Missouri S&T cDNA Resource Center (#CEM100TN00). M1R-CHOk1 cells were grown in Ham’s F12 Medium (ThermoFisher #21765029) supplemented with 10% fetal bovine serum (Brazilian origin, ThermoFisher #10270106), 100 units/mL Penicillin-Streptomycin, and 0.25 mg/mL Geneticin. HEK293A cells transiently transfected with GPR139 were used for additional pharmacological assessment of signaling pathways activated by GPR139. HEK239A cells were generously provided by Dr. Asuka Inoue, Tohoku University, Japan. HEK293A cells were grown in Dulbecco’s Modified Eagle Medium (ThermoFisher #31966047) supplemented with 10% dialyzed fetal bovine serum and 100 units/mL Penicillin-Streptomycin. Cell lines were maintained at 37 °C in humidified incubator equilibrated with 5% CO2.
30,000 GPR139- or M1R-CHOk1 cells/well were seeded in black clear bottom tissue culture treated 96-well plates (Greiner #655090) and grown for 20–24 h. Cells were washed with HEPES buffer (Hank’s Balanced Salt Solution (HBBS) supplemented with 20 mM HEPES, 1 mM MgCl2, and 1 mM CaCl2; pH 7.4). Cells were loaded with 50 µL of 2 µM Fluo-4 AM dye (ThermoFisher #F14202) in HEPES buffer supplemented with 2.5 mM probenecid and 0.01% Pluronic F-68 (ThermoFisher #24040032) for 1 h at 37 °C. Cells were washed with HEPES buffer. 50 µL HEPES buffer supplemented with 2.5 mM probenecid was added, and the cells were incubated for 10 min at 37 °C before measurement. 50 µL test compounds diluted in HEPES buffer from DMSO stocks (final DMSO concentration of maximally 0.3%) were added automatically after baseline measurements. The intracellular calcium mobilization was measured on a FlexStation 3 Multimode Microplate Reader (Molecular Devices) at 37 °C with filters for excitation of 485 nm and emission of 525 nm.

[4] = individual replicates (Supplementary Figure 1)
[5] = 0.1 µM, individual replicates (Supplementary Figure 3)
[6] = 1 µM, individual replicates (Supplementary Figure 3)
[7] = 10 µM, individual replicates (Supplementary Figure 3)
[8] = Agonist mode, individual replicates (Supplementary Figure 1)
[9] = primary screen, 10 µM compound, agonist mode, three columns = independent experiments
[10] = individual replicates (Supplementary Figure 2)
[11] = individual replicates (Supplementary Figure 4)
[12] = Agonist mode, individual replicates (Supplementary Figure 4)
[13] = Supplementary Table 2, mean ± SEM
[14] = log [Compound] M = -4.5, individual replicate columns
[15] = log [Compound] M = -5.0, individual replicate columns
[16] = log [Compound] M = -5.5, individual replicate columns
[17] = log [Compound] M = -6.0, individual replicate columns
[18] = log [Compound] M = -6.5, individual replicate columns
[19] = log [Compound] M = -7.0, individual replicate columns
[20] = log [Compound] M = -7.5, individual replicate columns
[21] = log [Compound] M = -8.0, individual replicate columns
[22] = log [Compound] M = -8.5, individual replicate columns
[23] = log [Compound] M = -9.0, individual replicate columns
[24] = individual replicates (Supplementary Figure 5)

| SMILES | Ca2+ signal (% of Cmp 1a) [1, 4] | Ca2+ signal (% of Cmp 1a) [2, 5] | Ca2+ signal (% of Cmp 1a) [2, 6] | Ca2+ signal (% of Cmp 1a) [2, 7] | Ca2+ signal (% of Cmp 1a) [2, 8] | Ca2+ signal (% of Cmp 1a) [2, 9] | Ca2+ signal (% of Carbachol) [3, 10] | Ca2+ signal (% of Cmp 1a) [1, 11] | Ca2+ signal (% of Cmp 1a) [2, 12] | Emax [2, 13] [%] | Ca2+ signal (% of Cmp 1a) [2, 14] | Ca2+ signal (% of Cmp 1a) [2, 15] | Ca2+ signal (% of Cmp 1a) [2, 16] | Ca2+ signal (% of Cmp 1a) [2, 17] | Ca2+ signal (% of Cmp 1a) [2, 18] | Ca2+ signal (% of Cmp 1a) [2, 19] | Ca2+ signal (% of Cmp 1a) [2, 20] | Ca2+ signal (% of Cmp 1a) [2, 21] | Ca2+ signal (% of Cmp 1a) [2, 22] | Ca2+ signal (% of Cmp 1a) [2, 23] | also measured |
| --- | --- | --- | --- | --- | --- | --- | --- | --- | --- | --- | --- | --- | --- | --- | --- | --- | --- | --- | --- | --- | --- |
| O=C(NCc1ccc(Cl)o1)N1CCCc2ccccc2C1 [Compound 7, ClC1=CC=C(CNC(=O)N2CCCC=3C=CC=CC3C2)O1] | 37.7665 % of Cmp 1a and 52.8581 % of Cmp 1a and 40.8806 % of Cmp 1a | 16.2 % of Cmp 1a and 6.0 % of Cmp 1a | 2.4 % of Cmp 1a and 4.1 % of Cmp 1a | 22.7 % of Cmp 1a and 24.5 % of Cmp 1a | 44 % of Cmp 1a and 39 % of Cmp 1a and 33 % of Cmp 1a | 44 % of Cmp 1a and 39 % of Cmp 1a and 33 % of Cmp 1a | -10 % of Carbachol and -18 % of Carbachol |  |  |  |  |  |  |  |  |  |  |  |  |  | activation of GPR139 at three concentrations ([2]; 0.1, 1 and 10 µM, activity too low to reliably determine EC50): concentration-dependent activation of GPR139 |
| Cc1ccc(-c2nc(CC(=O)NC(C)c3ccccc3)no2)o1 (stereo not drawn) [Compound 1.6, CC(C1=CC=CC=C1)NC(CC2=NOC(C3=CC=C(O3)C)=N2)=O] |  |  |  |  |  |  |  | -5.33 % of Cmp 1a and -3.67 % of Cmp 1a and -16 % of Cmp 1a | 102 % of Cmp 1a and 114 % of Cmp 1a and 83 % of Cmp 1a | 112 ± 10 | 98 % of Cmp 1a and 103 % of Cmp 1a and 120 % of Cmp 1a | 89 % of Cmp 1a and 114 % of Cmp 1a and 105 % of Cmp 1a | 87 % of Cmp 1a and 107 % of Cmp 1a and 97 % of Cmp 1a | 70 % of Cmp 1a and 96 % of Cmp 1a and 81 % of Cmp 1a | 48 % of Cmp 1a and 70 % of Cmp 1a and 59 % of Cmp 1a | 17 % of Cmp 1a and 46 % of Cmp 1a and 43 % of Cmp 1a | -11 % of Cmp 1a and 21 % of Cmp 1a and 0 % of Cmp 1a | -16 % of Cmp 1a and -2 % of Cmp 1a and 1 % of Cmp 1a | -14 % of Cmp 1a and -8 % of Cmp 1a and -4 % of Cmp 1a | -22 % of Cmp 1a and -11 % of Cmp 1a and -20 % of Cmp 1a | EC50 ([2]; Supplementary Table 2, mean ± SEM, read-out: pEC50 Ca2+ (converted)): 158 nM; Ca2+ signal (% of Carbachol) [3, 24]: -2 % of Carbachol and -10 % of Carbachol and 10 % of Carbachol |
| Cc1cccc(-c2nc(CC(=O)NC(C)c3ccccc3)no2)c1 (stereo not drawn) [Compound 1.3, CC(C1=CC=CC=C1)NC(CC2=NOC(C3=CC(C)=CC=C3)=N2)=O] |  |  |  |  |  |  |  | 13 % of Cmp 1a and 0.333 % of Cmp 1a and -11 % of Cmp 1a | 106 % of Cmp 1a and 102 % of Cmp 1a and 119 % of Cmp 1a | 109 ± 6 | 95 % of Cmp 1a and 109 % of Cmp 1a and 110 % of Cmp 1a and 97 % of Cmp 1a | 91 % of Cmp 1a (2×) and 123 % of Cmp 1a and 104 % of Cmp 1a | 80 % of Cmp 1a and 126 % of Cmp 1a and 100 % of Cmp 1a and 85 % of Cmp 1a | 76 % of Cmp 1a and 101 % of Cmp 1a and 90 % of Cmp 1a and 71 % of Cmp 1a | 55 % of Cmp 1a and 89 % of Cmp 1a and 72 % of Cmp 1a and 60 % of Cmp 1a | 36 % of Cmp 1a and 68 % of Cmp 1a and 56 % of Cmp 1a and 52 % of Cmp 1a | 12 % of Cmp 1a and 48 % of Cmp 1a (2×) and 34 % of Cmp 1a | 5.33 % of Cmp 1a and 18 % of Cmp 1a and 26 % of Cmp 1a and 21 % of Cmp 1a | 5 % of Cmp 1a and 3.67 % of Cmp 1a and 12 % of Cmp 1a and 9 % of Cmp 1a | -3 % of Cmp 1a and 12 % of Cmp 1a and 5.67 % of Cmp 1a and 8 % of Cmp 1a | EC50 ([2]; GPR139-CHOk1, read-out: EC50, Ca2+ mobilization): 100 nM; Ca2+ signal (% of Carbachol) [3, 24]: 24 % of Carbachol and -2 % of Carbachol and 12 % of Carbachol |
| O=C(NC1CC12CCCC2)C1CCCN(c2ccccc2)C1=O (stereo not drawn) [Compound 13, O=C(NC1CC21CCCC2)C3CCCN(C3=O)C=4C=CC=CC4] | 67.15 % of Cmp 1a and 66.5231 % of Cmp 1a and 65.9874 % of Cmp 1a | -0.35 % of Cmp 1a and -3.4 % of Cmp 1a | 5.0 % of Cmp 1a and -6.6 % of Cmp 1a | 18.4 % of Cmp 1a and -6.0 % of Cmp 1a | 47 % of Cmp 1a and 33 % of Cmp 1a and 40 % of Cmp 1a | 47 % of Cmp 1a and 33 % of Cmp 1a and 40 % of Cmp 1a | -12 % of Carbachol and -1.24 % of Carbachol |  |  |  |  |  |  |  |  |  |  |  |  |  |  |
